From patent US20240051954A1, “PYRROLO[3,2-B]PYRIDINE DERIVATIVES USEFUL IN TREATING CONDITIONS ASSOCIATED WITH CGAS” (NOVARTIS AG, priority 2020, published 2024) come the findings set out here.

The target of this assay is human truncated cGAS enzyme (147-522 human cGAS) (Homo sapiens (Human), UniProt Q8N884). The assay is described as follows: Quantification of cGAS protein inhibition (cGAMP formation, LC-MS/MS). Format: biochemical. The following applies: 30 nM enzyme, 45 bp dsDNA (ISD) 5 μM, GTP and ATP 0.5 mM each, 1 h at room temperature; potential mixture of co-existing tautomers and/or racemates. The method, then:
Example 52: Quantification of cGAS Protein Inhibition
A reagent buffer was prepared in filtered and autoclaved water according to the following: • 50 mM Tris-buffer pH 7.5 (1 M Tris-buffer pH 7.5, Invitrogen, Cat. No. 15567-027); • 50 mM NaCl (5 M NaCl, Sodium Chloride Solution, Sigma, 59222C-); • 5 mM MgCl2 (1 M MgCl2, Sigma, M1028); • 0.1 mM ZnCl2 (Zinc Chloride [7646-85-7], powder, Cell Culture Tested, Sigma, Z-0152); and • 0.001% Tween 20 (TWEEN 20, Sigma Aldrich, P1379-).
A buffer for the cGAS enzyme was prepared in filtered and autoclaved water according to the following: • 50 mM Tris-buffer pH 7.5; • 5 mM MgCl2; and • 0.001% Tween 20.
Compounds were dispensed to a […]. The human truncated cGAS enzyme (4.2 mg/mL 147-522 human cGAS, MW 43,909 g/mol) was stored in 50 mM Tris, 500 mM NaCl, 5% (v/v) glycerol at pH 8 and diluted in the cGAS buffer enzyme shortly before use. The enzyme solution was transferred into the reagent buffer to give a final concentration of 30 nM. The reaction was started by mixing the enzyme with ISD (a 45 bp double stranded DNA, MW 27,670 g/mol, 5 mM), GTP and ATP to a final concentration of 5 μM, 0.5 mM and 0.5 mM respectively in a final volume of 10 μl. The reaction plates were then centrifuged at 1000 rpm for 1 minute and incubated at room temperature for 1 h. After 1 h of incubation, [^15N5]-2′3′-cGAMP to a final concentration of 200 nM and 30 μL of 100% acetonitrile/0.175% of TFA were added to the reaction mixture. The plates were centrifuged at 1000 rpm for 1 minute before being sealed for 3 seconds at 170° C. using a ThermoScientific sealer (ALPS™ 50V) and an aluminum sealing cover (Pierce Seal, 4titude, Product Code: 4TI-0531).
The concentration of cGAMP was measured on a LC-MS/MS system consisting of a THERMO Dionex Ultimate LC system with a high pressure pump, an autosampler, a column heating compartment (Reinach, Switzerland) and a SCIEX Triple Quad 5500 (Framingham, MA, USA) mass spectrometer for detection. The sample plates were centrifuged for 10 minutes at 2000 rpm. Up to three plates were placed in the autosampler for injection. An aliquot of 10 μL of each sample was injected on an XBridge BEH Amide 3.5 μm, 2.1×50 mm column (P/N 186004859) with an XBridge BEH Amide 5 μm 2.1×5 mm VanGuard Cartridge (P/N 186007760) pre-column (both WATERS, MA, USA) held at 40° C. An isocratic flow of 1.0 mL/min solvent (60% ACN, 8 mM ammonium acetate, 5 mM ammonium hydroxide, 0.04% acetic acid) was applied and sprayed into the ion source of the mass spectrometers. The MS parameters were optimized based on the properties of the compounds to be detected and run in positive multi-reaction mode (MRM) based on the mass transitions. LC and MS parameters were also optimized to allow for a sample-to-sample measuring time of approximately 75 sec and a run time of 8 hours per 384-well plate. All data were analyzed with Excel; and the dose response curves were generated using the auto fitting function of XLfit. The IC50 was determined by plotting the cGAMP concentration ratio (cGAMP divided by the internal standard [^15N5]-2′3′-cGAMP) versus the concentration of compound.

human truncated cGAS enzyme (147-522 human cGAS), sequence (Q8N884 147-522): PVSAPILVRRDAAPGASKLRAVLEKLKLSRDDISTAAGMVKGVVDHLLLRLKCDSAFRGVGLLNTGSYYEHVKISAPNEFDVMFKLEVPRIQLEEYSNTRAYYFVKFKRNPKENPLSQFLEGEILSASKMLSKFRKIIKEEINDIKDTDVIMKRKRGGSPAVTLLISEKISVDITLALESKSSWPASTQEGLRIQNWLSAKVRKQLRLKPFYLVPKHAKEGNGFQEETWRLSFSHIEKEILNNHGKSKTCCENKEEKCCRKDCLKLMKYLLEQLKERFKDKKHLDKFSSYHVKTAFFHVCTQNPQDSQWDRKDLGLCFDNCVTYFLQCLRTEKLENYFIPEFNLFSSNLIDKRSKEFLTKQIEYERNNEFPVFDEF

Broadly, the IC50 is the concentration that inhibits the measured activity by half. On to `COc1nc2c(-n3ccnc3)c(-c3nnc(C(F)(F)F)[nH]3)[nH]c2cc1Cl` [Example 46, 6-chloro-3-(1H-imidazol-1-yl)-5-methoxy-2-(5-(trifluoromethyl)-4H-1,2,4-triazol-3-yl)-1H-pyrrolo[3,2-b]pyridine], for which the IC50 was 80 nM.

For `COc1nc2c(-c3cn[nH]c3)c(-c3nnc[nH]3)n(C)c2cc1Cl` [Example 14, 6-chloro-5-methoxy-1-methyl-3-(1H-pyrazol-4-yl)-2-(4H-1,2,4-triazol-3-yl)-1H-pyrrolo[3,2-b]pyridine], the IC50 was determined as 3520 nM. The same measure for `COc1nc2c(-c3cn[nH]c3)c(-c3nnc(C(C)(F)F)[nH]3)[nH]c2cc1Cl` [Example 3, 6-chloro-2-(5-(1,1-difluoroethyl)-4H-1,2,4-triazol-3-yl)-5-methoxy-3-(1H-pyrazol-4-yl)-1H-pyrrolo[3,2-b]pyridine]: 32 nM; for `COc1nc2c(-c3cn[nH]c3)c(-c3nnc(C(=O)N(C)C)[nH]3)n(C)c2cc1Cl` [Example 43, 5-(6-chloro-5-methoxy-1-methyl-3-(1H-pyrazol-4-yl)-1H-pyrrolo[3,2-b]pyridin-2-yl)-N,N-dimethyl-4H-1,2,4-triazole-3-carboxamide]: 98 nM; for `COc1nc2c(-c3cn[nH]c3)c(-c3nnc(C(F)(F)F)[nH]3)n(C)c2cc1Cl` [Example 1, 6-chloro-5-methoxy-1-methyl-3-(1H-pyrazol-4-yl)-2-(5-(trifluoromethyl)-4H-1,2,4-triazol-3-yl)-1H-pyrrolo[3,2-b]pyridine]: 76 nM. The same measure for `COc1nc2c(-c3cn[nH]c3)c(-c3nnc(C(C)=O)[nH]3)n(C)c2cc1Cl` [Example 42, 1-(5-(6-chloro-5-methoxy-1-methyl-3-(1H-pyrazol-4-yl)-1H-pyrrolo[3,2-b]pyridin-2-yl)-4H-1,2,4-triazol-3-yl)ethan-1-one]: 66 nM.

As for `COc1nc2c(-n3ccnc3)c(-c3nnc(F)[nH]3)n(C)c2cc1Cl` [Example 33, 6-chloro-2-(5-fluoro-4H-1,2,4-triazol-3-yl)-3-(1H-imidazol-1-yl)-5-methoxy-1-methyl-1H-pyrrolo[3,2-b]pyridine], the IC50 was 332 nM.

On to `Cn1c(-c2nnc(C(F)(F)F)[nH]2)c(-c2cn[nH]c2)c2nc(O)c(Cl)cc21` [Example 50, 6-chloro-1-methyl-3-(1H-pyrazol-4-yl)-2-(5-(trifluoromethyl)-4H-1,2,4-triazol-3-yl)-1H-pyrrolo[3,2-b]pyridin-5-ol], for which the IC50 worked out at 741 nM.

`COc1nc2c(-n3ccnc3)c(-c3nnc(CN(C)C)[nH]3)n(C)c2cc1Cl` [Example 51, 1-(5-(6-chloro-3-(1H-imidazol-1-yl)-5-methoxy-1-methyl-1H-pyrrolo[3,2-b]pyridin-2-yl)-4H-1,2,4-triazol-3-yl)-N,N-dimethylmethanamine]: the IC50 worked out at 308 nM.

As for `COc1nc2c(-n3ccnc3)c(-c3nnc(C(=O)N(C)C)[nH]3)n(C)c2cc1Cl` [Example 17, 5-(6-chloro-3-(1H-imidazol-1-yl)-5-methoxy-1-methyl-1H-pyrrolo[3,2-b]pyridin-2-yl)-N,N-dimethyl-4H-1,2,4-triazole-3-carboxamide], the concentration for half-maximal inhibition (IC50) is 116 nM. The value for `COc1nc2c(-c3cn[nH]c3)c(-c3nnc(F)[nH]3)n(C)c2cc1Cl` [Example 9, 6-chloro-2-(5-fluoro-4H-1,2,4-triazol-3-yl)-5-methoxy-1-methyl-3-(1H-pyrazol-4-yl)-1H-pyrrolo[3,2-b]pyridine] was 267 nM; that for `COCC(F)(F)c1nnc(-c2c(-n3ccnc3)c3nc(OC)c(Cl)cc3n2C)[nH]1` [Example 30, 6-chloro-2-(5-(1,1-difluoro-2-methoxyethyl)-4H-1,2,4-triazol-3-yl)-3-(1H-imidazol-1-yl)-5-methoxy-1-methyl-1H-pyrrolo[3,2-b]pyridine] was 186 nM; that for `COCC(O)c1nnc(-c2c(-n3ccnc3)c3nc(OC)c(Cl)cc3n2C)[nH]1` (centres unmarked) [Example 29, 1-(5-(6-chloro-3-(1H-imidazol-1-yl)-5-methoxy-1-methyl-1H-pyrrolo[3,2-b]pyridin-2-yl)-4H-1,2,4-triazol-3-yl)-2-methoxyethan-1-ol] was 295 nM. Turning to `COc1nc2c(-c3cn[nH]c3)c(-c3nnc(C(=O)N(C)C)[nH]3)[nH]c2cc1Cl` [Example 16, 5-(6-chloro-5-methoxy-3-(1H-pyrazol-4-yl)-1H-pyrrolo[3,2-b]pyridin-2-yl)-N,N-dimethyl-4H-1,2,4-triazole-3-carboxamide], the IC50 is 30 nM. The same measure for `COc1nc2c(-n3ccnc3)c(-c3nnc(/C(C)=N/OCCO)[nH]3)n(C)c2cc1Cl` [Example 40, (E/Z)-1-(5-(6-chloro-3-(1H-imidazol-1-yl)-5-methoxy-1-methyl-1H-pyrrolo[3,2-b]pyridin-2-yl)-4H-1,2,4-triazol-3-yl)ethan-1-one O-(2-hydroxyethyl)oxime]: 101 nM. The value for `COc1nc2c(-c3cn[nH]c3)c(-c3nnc(C(C)=O)[nH]3)[nH]c2cc1Cl` [Example 6, 1-(5-(6-chloro-5-methoxy-3-(1H-pyrazol-4-yl)-1H-pyrrolo[3,2-b]pyridin-2-yl)-4H-1,2,4-triazol-3-yl)ethan-1-one] was 66 nM; that for `COc1nc2c(-n3ccnc3)c(-c3nnc(C(F)(F)F)[nH]3)n(C)c2cc1Cl` [Example 45] was 384 nM; that for `COCC(c1nnc(-c2c(-n3ccnc3)c3nc(OC)c(Cl)cc3n2C)[nH]1)N(C)C` (centres unmarked) [Example 36, 1-(5-(6-chloro-3-(1H-imidazol-1-yl)-5-methoxy-1-methyl-1H-pyrrolo[3,2-b]pyridin-2-yl)-4H-1,2,4-triazol-3-yl)-2-methoxy-N,N-dimethylethan-1-amine] was 454 nM.

For the molecule `COc1nc2c(-n3ccnc3)c(-c3nnc(C(OC)C(F)(F)F)[nH]3)n(C)c2cc1Cl` (centres unmarked) [Example 26, 6-chloro-3-(1H-imidazol-1-yl)-5-methoxy-1-methyl-2-(5-(2,2,2-trifluoro-1-methoxyethyl)-4H-1,2,4-triazol-3-yl)-1H-pyrrolo[3,2-b]pyridine], the half-inhibitory concentration (IC50) was 107 nM. The value for `COCC(c1nnc(-c2c(-c3cn[nH]c3)c3nc(OC)c(Cl)cc3n2C)[nH]1)N(C)C` (centres unmarked) [Example 37, 1-(5-(6-chloro-5-methoxy-1-methyl-3-(1H-pyrazol-4-yl)-1H-pyrrolo[3,2-b]pyridin-2-yl)-4H-1,2,4-triazol-3-yl)-2-methoxy-N,N-dimethylethan-1-amine] was 123 nM.
